Measurements reported in patent US9993001B2, “Herbicidal composition” (ISHIHARA SANGYO KAISHA, LTD., priority 2014, dated 2018).

What was measured:
Type in all cases: in vivo
[1] = system: black nightshade (Solanum nigrum L.); assay: Test Example 27: pot, soil treatment, metobromuron + flufenacet; conditions: soil, read-out: Growth inhibition rate of black nightshade (%) Measured value
Source text: (§1) When the herbicidal activity in a case where two active ingredients are combined, is larger than the simple sum of the respective herbicidal activities of the two active ingredients (the expected activity), it is called a synergistic effect. The activity expected by the combination of two active ingredients can be calculated as follows (Colby S. R., “Weed”, vol. 15, p. 20-22, 1967). E=α+β−(α×β[…]) where α: growth inhibition rate when treated with x (g/ha) of herbicide X, • β: growth inhibition rate when treated with y (g/ha) of herbicide Y, • E: growth inhibition rate expected when treated with x (g/ha) of herbicide X and y (g/ha) of herbicide Y.
(§2) On the 19th day after treatment, the state of growth of barnyardgrass was visually observed and evaluated in accordance with the following standards. The growth inhibition rate (%) [measured value] and the growth inhibition rate (%) [calculated value] calculated by the Colby's method, are shown in Table 2.
(§3) Growth inhibition rate (%)=inhibition rate) (%) of 0 (equivalent to the non-treated area) to 100 (complete kill)
(§4) Soil was put into a 1/300,000 ha pot, and seeds of black nightshade (Solanum nigrum L.) were sown. On the day after seeding, predetermined amounts of SC containing metobromuron as active ingredient (same as in Test Example 1) and EC containing prosulfocarb as active ingredient (trade name: BOXER NYUZAI, manufactured by Syngenta) were diluted with water corresponding to 1,000 L per hectare and applied for soil treatment.
On the 21st day after treatment, the state of growth of black nightshade was visually observed and evaluated in the same manner as in Test Example 1.
The test was carried out in the same manner as in Test Example 26 except that EC containing prosulfocarb as active ingredient was changed to SC containing flufenacet as active ingredient (trade name: Cadou, manufactured by Bayer CropScience), to obtain the results as shown in Table 28.

[2] = system: barnyardgrass (Echinochloa crus-qalli L.); assay: Test Example 1: soybean field, soil treatment, metobromuron + chlorpropham; conditions: soil, read-out: Growth inhibition rate of barnyardgrass (%) Measured value
Source text: When the herbicidal activity in a case where two active ingredients are combined, is larger than the simple sum of the respective herbicidal activities of the two active ingredients (the expected activity), it is called a synergistic effect. The activity expected by the combination of two active ingredients can be calculated as follows (Colby S. R., “Weed”, vol. 15, p. 20-22, 1967). E=α+β−(α×β[…]) where α: growth inhibition rate when treated with x (g/ha) of herbicide X, • β: growth inhibition rate when treated with y (g/ha) of herbicide Y, • E: growth inhibition rate expected when treated with x (g/ha) of herbicide X and y (g/ha) of herbicide Y. […]
as §2, with “2. […]” for “2.”

[3] = system: black nightshade (Solanum nigrum L.); assay: Test Example 14: pot, soil treatment, metobromuron + pyroxasulfone; conditions: soil, read-out: Growth inhibition rate of black nightshade (%) Measured value
Source text: as §1, §2, §3
as §4, with “Prior to germination of black nightshade,” for “On the day after seeding,”, “WG” for “EC”, “pyroxasulfone” for “prosulfocarb”, “(same as in Test Example 13)” for “(trade name: BOXER NYUZAI, manufactured by Syngenta)”
On the 12th day after treatment, the state of growth of black nightshade was visually observed and evaluated in the same manner as in Test Example 1.

[4] = system: black nightshade (Solanum nigrum L.); assay: Test Example 23: pot, soil treatment, metobromuron + fluazifop-P-butyl; conditions: Solanum nigrum, soil, read-out: Growth inhibition rate of black nightshade (%) Measured value
Source text: as §1, §2, §3
Soil was put into a 1/300,000 ha pot, and seeds of black nightshade (Solanum nigrum L.) were sown. […]
On the 20th day after treatment, the state of growth of black nightshade was visually observed and evaluated in the same manner as in Test Example 1.

Molecule CON(C)C(=O)Nc1ccc(Br)cc1 [Metobromuron, 3-(4-bromophenyl)-1-methoxy-1-methylurea] has an inhibition at 250 g/ha [1] of 25%, an inhibition at 375 g/ha [1] of 50% and an inhibition at 562.5 g/ha [1] of 68%. The inhibition at 1000 g/ha [2] was 58%, the inhibition at 375 g/ha [3] was 64% and the inhibition at 750 g/ha [3] was 83%. It also gave an inhibition at 750 g/ha [4] of 85%.
